Laboratory results reported in ChEMBL document CHEMBL1201862, “PubChem BioAssay data set” (2004).
Where “and” joins values, the source holds several entries; their conditions need not be identical. Equal values may be shown once.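 96-well plates; 48 h exposure; 5 concentrations. Endpoints by linear interpolation between flanking doses. Not reached: highest tested concentration assigned. The concentration for 50% growth inhibition is given as GI50.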 Calls of active or inactive are those of the source. Rule as the data show it: active = GI50 up to about 1.1 µM and inactive = higher.

What was measured:
Assay in all cases: NCI tumour cell line growth inhibition, 48 h
[1] = test system: SF-295
[2] = test system: Malme-3M
[3] = test system: U-251
[4] = test system: SK-MEL-5
[5] = test system: PC-3
[6] = test system: TK-10
[7] = test system: MDA-MB-231
[8] = test system: NCI/ADR-RES
[9] = test system: 786-0
[10] = test system: SN12C
[11] = test system: Hs-578T
[12] = test system: MDA-N
[13] = test system: K562
[14] = test system: NCI-H522
[15] = test system: SF-539
[16] = test system: HL-60
[17] = test system: CAKI-1
[18] = test system: OVCAR-4
[19] = test system: HCT-15
[20] = test system: BT-549

Compound	GI50 [1]	GI50 [2]	GI50 [3]	GI50 [4]	GI50 [5]	GI50 [6]	GI50 [7]	GI50 [8]	GI50 [9]	GI50 [10]	GI50 [11]	GI50 [12]	GI50 [13]	GI50 [14]	GI50 [15]	GI50 [16]	GI50 [17]	GI50 [18]	GI50 [19] [µM]	GI50 [20]
COc1ccc(C[C@H]2COC(=O)[C@@H]2Cc2ccccc2)cc1OC	> 100 µM (inactive)	> 100 µM (inactive)	> 100 µM (inactive)	> 100 µM (inactive)	> 100 µM (inactive)	> 100 µM (inactive)	> 100 µM (inactive)	> 100 µM (inactive)	> 100 µM (inactive)	> 100 µM (inactive)	> 100 µM (inactive)	> 100 µM (inactive)	> 100 µM (inactive)							
CCOC(=O)c1nc(SC)sc1NC(=O)c1ccc(OC)cc1	> 100 µM (inactive)	35.3 µM (inactive)	23.9 µM (inactive)	> 100 µM (inactive)	> 100 µM (inactive)	21.1 µM (inactive)	35.2 µM (inactive)	> 100 µM (inactive)	20.5 µM (inactive)	37.9 µM (inactive)	> 100 µM (inactive)	> 100 µM (inactive)	> 100 µM (inactive)	> 100 µM (inactive)	16.4 µM (inactive)	> 100 µM (inactive)	> 100 µM (inactive)	29.2 µM (inactive)	> 100	
C[C@H](CCCOS(C)(=O)=O)[C@H]1CC[C@H]2[C@@H]3CC[C@@H]4C[C@H](OS(C)(=O)=O)CC[C@]4(C)[C@H]3CC[C@]12C	37.5 µM (inactive)	15.2 µM (inactive)	15.9 µM (inactive)	29.8 µM (inactive)	20.6 µM (inactive)	15.7 µM (inactive)	13.8 µM (inactive)	26.7 µM (inactive)	31 µM (inactive)	16.7 µM (inactive)	24.4 µM (inactive)		> 100 µM (inactive)	29.7 µM (inactive)	21 µM (inactive)		11.6 µM (inactive)	27.9 µM (inactive)	66.8	36.8 µM (inactive)
Cc1ccc(C(=O)O)c(/C=C2\Cc3ccc(C)cc3C2=O)c1	38.1 µM (inactive)	95.9 µM (inactive)	34 µM (inactive)	25.1 µM (inactive)	48.8 µM (inactive)	> 100 µM (inactive)		71.8 µM (inactive)	62.2 µM (inactive)	40.6 µM (inactive)	64.3 µM (inactive)	37.8 µM (inactive)	39.9 µM (inactive)	96.8 µM (inactive)	20 µM (inactive)	28.6 µM (inactive)	44.3 µM (inactive)	50.5 µM (inactive)	56.4	12.9 µM (inactive)
COc1ccc(/C=N/NC(=O)NCCNCCO)cc1	> 100 µM (inactive)	> 100 µM (inactive)	> 100 µM (inactive)	> 100 µM (inactive)		> 100 µM (inactive)			> 100 µM (inactive)	> 100 µM (inactive)			> 100 µM (inactive)	> 100 µM (inactive)	> 100 µM (inactive)	> 100 µM (inactive)	> 100 µM (inactive)	> 100 µM (inactive)	> 100	
CC(=O)Nc1oc(C)c(C)c1S(=O)(=O)c1ccc(Cl)cc1	44.6 µM (inactive)	40.2 µM (inactive)	92 µM (inactive)	27.8 µM (inactive)	22.1 µM (inactive)	60.5 µM (inactive)		36 µM (inactive)	98.9 µM (inactive)		33.4 µM (inactive)		77.1 µM (inactive)	37.7 µM (inactive)	26.7 µM (inactive)	97.7 µM (inactive)		39.1 µM (inactive)	41.8	29.2 µM (inactive)
COc1cc(-c2c(C(C)=O)c(-c3ccccc3)n(C3OC(COC(C)=O)C(OC(C)=O)C(OC(C)=O)C3OC(C)=O)c(=S)c2C#N)ccc1O (stereo unspecified)	> 100 µM (inactive)		> 100 µM (inactive)	37.2 µM (inactive) and 72.4 µM (inactive)	46.8 µM (inactive) and 65.6 µM (inactive)			> 100 µM (inactive)	> 100 µM (inactive)	> 100 µM (inactive)	70.6 µM (inactive)	33 µM (inactive) and 49.8 µM (inactive)	> 100 µM (inactive)				> 100 µM (inactive)	> 100 µM (inactive)	> 100	33.1 µM (inactive)
N#Cc1[nH]c(=O)n(-c2ccccc2)c1N	0.279 µM (active)	> 10 µM (inactive)	> 10 µM (inactive)	> 10 µM (inactive)	> 10 µM (inactive)	> 10 µM (inactive)	> 10 µM (inactive)	> 10 µM (inactive)	> 10 µM (inactive)	> 10 µM (inactive)	> 10 µM (inactive)	> 10 µM (inactive)	> 10 µM (inactive)		> 10 µM (inactive)	> 10 µM (inactive)		> 10 µM (inactive)	> 10	
N=C(NNS(=O)(=O)c1ccccc1)Oc1ccc(Br)cc1Br	> 100 µM (inactive)	> 100 µM (inactive)	> 100 µM (inactive)	> 100 µM (inactive)		> 100 µM (inactive)			41.3 µM (inactive)	> 100 µM (inactive)			90.6 µM (inactive)	67 µM (inactive)	> 100 µM (inactive)	92.7 µM (inactive)	> 100 µM (inactive)	> 100 µM (inactive)	> 100	
COc1ccc2c(c1)CCCN1CCc3cc(OC)c(OC)cc3C21 (stereo unspecified)	46.5 µM (inactive)	> 100 µM (inactive)	> 100 µM (inactive)	> 100 µM (inactive)	> 100 µM (inactive)	> 100 µM (inactive)	> 100 µM (inactive)	21.8 µM (inactive)	> 100 µM (inactive)	> 100 µM (inactive)		> 100 µM (inactive)	61.7 µM (inactive)		35.5 µM (inactive)	41.1 µM (inactive)	> 100 µM (inactive)		> 100	4.09 µM (inactive)
CC1CC/C(=C\c2ccc(F)cc2)C2=C1C(c1ccc(F)cc1)n1c(s/c(=C/c3cccc(Br)c3)c1=O)=N2 (stereo unspecified)			> 100 µM (inactive)	> 100 µM (inactive)	> 100 µM (inactive)	> 100 µM (inactive)	> 100 µM (inactive)		> 100 µM (inactive)	> 100 µM (inactive)	> 100 µM (inactive)	> 100 µM (inactive)	> 100 µM (inactive)			> 100 µM (inactive)	> 100 µM (inactive)		> 100	
O=[N+]([O-])c1ccc(-c2nn3c(C45CC6CC(CC(C6)C4)C5)nnc3s2)c(Cl)c1	> 100 µM (inactive)	> 100 µM (inactive)	> 100 µM (inactive)	> 100 µM (inactive)	> 100 µM (inactive)	> 100 µM (inactive)	> 100 µM (inactive)	> 100 µM (inactive)	> 100 µM (inactive)	> 100 µM (inactive)	> 100 µM (inactive)	> 100 µM (inactive)	> 100 µM (inactive)	> 100 µM (inactive)	> 100 µM (inactive)	> 100 µM (inactive)	> 100 µM (inactive)	> 100 µM (inactive)	> 100	
COc1cc2c(cc1OC)C(Cc1ccc(Oc3cc(CC4c5cc(OC)c(OC)cc5CCN4C)ccc3O)cc1)N(C)CC2 (stereo unspecified)	26.4 µM (inactive)	19.5 µM (inactive)	16.9 µM (inactive)	15.7 µM (inactive)		52.7 µM (inactive)			13.5 µM (inactive)	25.8 µM (inactive)			10.2 µM (inactive)	12 µM (inactive)	16.3 µM (inactive)	13.4 µM (inactive)	21.7 µM (inactive)	20.5 µM (inactive)	15.6	
COc1cc(C2C(Cl)C(=O)N2c2c(C)n(C)n(-c3ccccc3)c2=O)ccc1O (stereo unspecified)	22.2 µM (inactive)	28.3 µM (inactive)	18 µM (inactive)	23.2 µM (inactive)	28.8 µM (inactive)	24.7 µM (inactive)	22.1 µM (inactive)	30.3 µM (inactive)	11.9 µM (inactive)	19.1 µM (inactive)		15.6 µM (inactive)	26.6 µM (inactive)	13.6 µM (inactive)	16.3 µM (inactive)	23.3 µM (inactive)	33.6 µM (inactive)	16.5 µM (inactive)		20.1 µM (inactive)
NN/C(=N\S(=O)(=O)c1ccc(-c2ccccn2)s1)Nc1ccc(Cl)cc1	52.5 µM (inactive)		44.2 µM (inactive)	> 100 µM (inactive)	> 100 µM (inactive)	> 100 µM (inactive)	> 100 µM (inactive)	> 100 µM (inactive)	29.2 µM (inactive)	> 100 µM (inactive)		> 100 µM (inactive)	> 100 µM (inactive)	0.265 µM (active)	38.9 µM (inactive)	> 100 µM (inactive)	58.6 µM (inactive)	85.9 µM (inactive)	> 100	> 100 µM (inactive)
CC(=O)c1c(O)nnc(-c2ccc(Cl)cc2)c1-c1ccc(Cl)cc1	46.1 µM (inactive)	28.5 µM (inactive)	51.9 µM (inactive)	29 µM (inactive)	37.4 µM (inactive)	62.4 µM (inactive)	21.2 µM (inactive)	30.1 µM (inactive)	83.6 µM (inactive)	22.3 µM (inactive)	53.1 µM (inactive)	33.7 µM (inactive)	30.4 µM (inactive)		22.7 µM (inactive)	25 µM (inactive)	31.8 µM (inactive)	21.1 µM (inactive)	24.2	
